In patent US20100081718A1, “CO[…]-2-DELTA LIGANDS” (Pfizer Inc, priority 2003, published 2010):
Counter-ions that a name gives are not always drawn.

Experiments:
[1] = Plasma concentration (Cmax) of gabapentin in the rat

| SMILES | melting point [°C] | Cmax [1] [ng/mL] |
| --- | --- | --- |
| CCC[C@@H](C)C[C@H](N)CC(=O)O.Cl | 142.5 to 142.7 | – |
| CCCC[C@@H](C)C[C@H](N)CC(=O)O (as salt: hydrochloride) | 142.5 to 143.3 | – |
| NCC1(CC(=O)O)CCCCC1 [gabapentin, 1-(aminomethyl)-cyclohexylacetic acid] | – | 520 to 10500 |
